Consider one molecule from article PMC9133015 (Nature Communications, 2022).

Where “and” joins values, the source holds several entries; their conditions need not be identical. Equal values may be shown once.

Holding throughout (assay): Kinase inhibitor specificity profiling (Reaction Biology Corporation)
Common to all, as to format: biochemical
What all share (parameters): % Enzyme Activity (relative to DMSO controls): concentration or dose not given beside the values

Experiment [1] addresses T1, panel of 370 protein kinases (Homo sapiens, UniProt P00533).
T1 construct: purchased Reaction Biology Corporation (assay service)
Particulars: kinase EGFR.

The target of experiment [2] is T2, panel of 370 protein kinases (Homo sapiens, UniProt P41279).
T2 construct: purchased Reaction Biology Corporation (assay service)
Particulars: 2 h, kinase COT1/MAP3K8; read-out: % Enzyme Activity (relative to DMSO controls).

In experiment [3] the target is T3, panel of 370 protein kinases (Homo sapiens, UniProt P35968).
T3 construct: purchased Reaction Biology Corporation (assay service)
The settings on record: 2 h, kinase KDR/VEGFR2; read-out: % Enzyme Activity (relative to DMSO controls).

The target of experiment [4] is T4, panel of 370 protein kinases (Homo sapiens, UniProt Q9NYY3).
T4 construct: purchased Reaction Biology Corporation (assay service)
T4 sequence (Q9NYY3 whole entry): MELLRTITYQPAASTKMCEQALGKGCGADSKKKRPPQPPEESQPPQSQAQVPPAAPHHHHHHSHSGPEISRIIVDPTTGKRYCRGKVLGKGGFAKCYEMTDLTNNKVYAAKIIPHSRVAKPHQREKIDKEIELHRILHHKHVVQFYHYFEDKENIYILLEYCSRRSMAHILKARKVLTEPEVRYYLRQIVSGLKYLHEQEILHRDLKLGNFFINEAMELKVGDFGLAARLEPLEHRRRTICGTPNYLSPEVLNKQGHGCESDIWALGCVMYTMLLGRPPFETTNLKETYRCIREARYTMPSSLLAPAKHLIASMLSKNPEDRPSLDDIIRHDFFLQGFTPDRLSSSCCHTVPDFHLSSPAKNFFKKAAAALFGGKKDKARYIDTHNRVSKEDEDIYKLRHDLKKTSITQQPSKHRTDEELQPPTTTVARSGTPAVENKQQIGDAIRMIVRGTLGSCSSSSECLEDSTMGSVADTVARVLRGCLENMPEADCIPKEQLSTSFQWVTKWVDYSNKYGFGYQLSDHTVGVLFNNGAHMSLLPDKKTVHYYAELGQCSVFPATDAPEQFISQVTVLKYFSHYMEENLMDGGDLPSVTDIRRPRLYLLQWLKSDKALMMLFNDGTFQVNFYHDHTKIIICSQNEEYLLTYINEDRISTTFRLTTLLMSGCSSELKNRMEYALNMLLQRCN
Particulars: kinase PLK2.

Experiment [5] has as its target T5, panel of 370 protein kinases (Homo sapiens, UniProt O60674).
T5 construct: purchased Reaction Biology Corporation (assay service)
The settings on record: kinase JAK2.

Experiment [6] has as its target T6, panel of 370 protein kinases (Homo sapiens, UniProt Q96GD4).
T6 construct: purchased Reaction Biology Corporation (assay service)
Particulars: 2 h, kinase AURORA B; read-out: % Enzyme Activity (relative to DMSO controls).

For experiment [7], the target named is T7, panel of 370 protein kinases (Homo sapiens, UniProt P30291).
T7 construct: purchased Reaction Biology Corporation (assay service)
Particulars: 2 h, kinase WEE1; read-out: % Enzyme Activity (relative to DMSO controls).

In experiment [8] the target is T8, panel of 370 protein kinases (Homo sapiens, UniProt O14965).
T8 construct: purchased Reaction Biology Corporation (assay service)
The settings on record: 2 h, kinase Aurora A; read-out: % Enzyme Activity (relative to DMSO controls).

The target in experiment [9] is T9, panel of 370 protein kinases (Homo sapiens, UniProt Q06418).
T9 construct: purchased Reaction Biology Corporation (assay service)
The settings on record: 2 h, kinase TYRO3/SKY; read-out: % Enzyme Activity (relative to DMSO controls).

Experiment [10] concerns the target T10, panel of 370 protein kinases (Homo sapiens, UniProt Q16620).
T10 construct: purchased Reaction Biology Corporation (assay service)
The settings on record: 2 h, kinase TRKB; read-out: % Enzyme Activity (relative to DMSO controls).

Experiment [11] has as its target T11, panel of 370 protein kinases (Homo sapiens, UniProt O14920).
T11 construct: purchased Reaction Biology Corporation (assay service)
The settings on record: 2 h, kinase IKKb/IKBKB; read-out: % Enzyme Activity (relative to DMSO controls).

Experiment [12] concerns the target T12, panel of 370 protein kinases (Homo sapiens, UniProt P29317).
T12 construct: purchased Reaction Biology Corporation (assay service)
The settings on record: 2 h, kinase EPHA2; read-out: % Enzyme Activity (relative to DMSO controls).

In experiment [13] the target is T13, panel of 370 protein kinases (Homo sapiens, UniProt O14733).
T13 construct: purchased Reaction Biology Corporation (assay service)
T13 sequence (O14733 whole entry): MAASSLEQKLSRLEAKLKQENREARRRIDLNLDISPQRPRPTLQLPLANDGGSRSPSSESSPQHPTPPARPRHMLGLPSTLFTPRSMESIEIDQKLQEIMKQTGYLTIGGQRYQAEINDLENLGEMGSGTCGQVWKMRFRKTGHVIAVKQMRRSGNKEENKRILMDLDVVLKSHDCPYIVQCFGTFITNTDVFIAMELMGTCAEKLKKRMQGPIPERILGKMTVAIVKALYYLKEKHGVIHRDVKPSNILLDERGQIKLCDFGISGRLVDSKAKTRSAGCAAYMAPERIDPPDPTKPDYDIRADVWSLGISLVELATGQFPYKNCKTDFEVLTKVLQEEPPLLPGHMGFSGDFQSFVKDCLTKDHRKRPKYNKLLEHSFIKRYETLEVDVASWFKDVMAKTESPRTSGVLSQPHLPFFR
The settings on record: kinase MKK7.

Experiment [14] deals with T14, panel of 370 protein kinases (Homo sapiens, UniProt P07332).
T14 construct: purchased Reaction Biology Corporation (assay service)
Particulars: 2 h, kinase FES/FPS; read-out: % Enzyme Activity (relative to DMSO controls).

Experiment [15] concerns the target T15, panel of 370 protein kinases (Homo sapiens, UniProt P51812).
T15 construct: purchased Reaction Biology Corporation (assay service)
Particulars: 2 h, kinase RSK2; read-out: % Enzyme Activity (relative to DMSO controls).

Experiment [16] addresses T16, panel of 370 protein kinases (Homo sapiens, UniProt Q13164).
T16 construct: purchased Reaction Biology Corporation (assay service)
The settings on record: 2 h, kinase ERK5/MAPK7; read-out: % Enzyme Activity (relative to DMSO controls).

Experiment [17] has as its target T17, panel of 370 protein kinases (Homo sapiens, UniProt Q02750).
T17 construct: purchased Reaction Biology Corporation (assay service)
Particulars: 2 h, kinase MEK1; read-out: % Enzyme Activity (relative to DMSO controls).

Experiment [18] has as its target T18, panel of 370 protein kinases (Homo sapiens, UniProt Q9Y243).
T18 construct: purchased Reaction Biology Corporation (assay service)
Particulars: 2 h, kinase AKT3; read-out: % Enzyme Activity (relative to DMSO controls).

For experiment [19], the target named is T19, panel of 370 protein kinases (Homo sapiens, UniProt P08581).
T19 construct: purchased Reaction Biology Corporation (assay service)
T19 sequence (P08581 25-1390): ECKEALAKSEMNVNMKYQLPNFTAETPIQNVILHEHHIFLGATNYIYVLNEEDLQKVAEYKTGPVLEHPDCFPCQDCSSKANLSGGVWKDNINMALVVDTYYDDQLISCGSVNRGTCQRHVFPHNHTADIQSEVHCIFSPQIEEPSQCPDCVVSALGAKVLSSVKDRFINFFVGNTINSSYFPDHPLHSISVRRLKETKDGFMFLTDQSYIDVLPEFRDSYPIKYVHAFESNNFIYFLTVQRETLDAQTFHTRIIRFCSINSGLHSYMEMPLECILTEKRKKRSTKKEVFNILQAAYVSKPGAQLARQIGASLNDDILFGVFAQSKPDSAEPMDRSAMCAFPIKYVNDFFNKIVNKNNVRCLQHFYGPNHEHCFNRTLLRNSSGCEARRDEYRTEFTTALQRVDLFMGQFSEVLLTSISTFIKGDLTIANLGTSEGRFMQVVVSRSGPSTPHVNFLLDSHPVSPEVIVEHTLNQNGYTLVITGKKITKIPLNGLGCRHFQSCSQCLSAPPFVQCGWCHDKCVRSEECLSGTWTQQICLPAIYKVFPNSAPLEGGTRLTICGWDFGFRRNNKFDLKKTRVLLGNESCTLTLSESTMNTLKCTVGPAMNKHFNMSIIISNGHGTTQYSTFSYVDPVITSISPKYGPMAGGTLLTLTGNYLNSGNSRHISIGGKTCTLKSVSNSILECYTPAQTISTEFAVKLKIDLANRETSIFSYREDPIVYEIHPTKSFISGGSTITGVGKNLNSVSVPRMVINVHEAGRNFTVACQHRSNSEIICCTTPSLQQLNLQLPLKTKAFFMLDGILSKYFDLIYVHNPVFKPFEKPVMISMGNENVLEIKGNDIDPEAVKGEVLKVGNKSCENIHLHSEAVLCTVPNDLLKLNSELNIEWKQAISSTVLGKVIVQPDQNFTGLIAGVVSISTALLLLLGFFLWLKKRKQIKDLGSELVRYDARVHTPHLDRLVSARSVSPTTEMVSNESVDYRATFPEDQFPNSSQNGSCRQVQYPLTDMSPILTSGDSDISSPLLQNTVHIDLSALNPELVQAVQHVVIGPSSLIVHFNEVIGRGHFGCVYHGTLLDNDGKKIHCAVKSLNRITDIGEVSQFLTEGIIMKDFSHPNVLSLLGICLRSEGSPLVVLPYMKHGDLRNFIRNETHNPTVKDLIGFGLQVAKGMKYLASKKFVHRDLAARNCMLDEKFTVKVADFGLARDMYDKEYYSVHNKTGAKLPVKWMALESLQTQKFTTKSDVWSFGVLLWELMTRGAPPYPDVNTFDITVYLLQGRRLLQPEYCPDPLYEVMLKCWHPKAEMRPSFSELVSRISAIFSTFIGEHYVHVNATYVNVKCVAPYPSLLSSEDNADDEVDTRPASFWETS
Particulars: kinase c-MET.

Experiment [20] concerns the target T20, panel of 370 protein kinases (Homo sapiens, UniProt Q16288).
T20 construct: purchased Reaction Biology Corporation (assay service)
Particulars: 2 h, kinase TRKC; read-out: % Enzyme Activity (relative to DMSO controls).

Experiment [21] addresses T21, panel of 370 protein kinases (Homo sapiens, UniProt Q32MK0).
T21 construct: purchased Reaction Biology Corporation (assay service)
Particulars: 2 h, kinase MYLK3; read-out: % Enzyme Activity (relative to DMSO controls).

The target of experiment [22] is T22, panel of 370 protein kinases (Homo sapiens, UniProt Q9UPZ9).
T22 construct: purchased Reaction Biology Corporation (assay service)
Particulars: 2 h, kinase LCK2/ICK; read-out: % Enzyme Activity (relative to DMSO controls).

T5 sequence (O60674 whole entry): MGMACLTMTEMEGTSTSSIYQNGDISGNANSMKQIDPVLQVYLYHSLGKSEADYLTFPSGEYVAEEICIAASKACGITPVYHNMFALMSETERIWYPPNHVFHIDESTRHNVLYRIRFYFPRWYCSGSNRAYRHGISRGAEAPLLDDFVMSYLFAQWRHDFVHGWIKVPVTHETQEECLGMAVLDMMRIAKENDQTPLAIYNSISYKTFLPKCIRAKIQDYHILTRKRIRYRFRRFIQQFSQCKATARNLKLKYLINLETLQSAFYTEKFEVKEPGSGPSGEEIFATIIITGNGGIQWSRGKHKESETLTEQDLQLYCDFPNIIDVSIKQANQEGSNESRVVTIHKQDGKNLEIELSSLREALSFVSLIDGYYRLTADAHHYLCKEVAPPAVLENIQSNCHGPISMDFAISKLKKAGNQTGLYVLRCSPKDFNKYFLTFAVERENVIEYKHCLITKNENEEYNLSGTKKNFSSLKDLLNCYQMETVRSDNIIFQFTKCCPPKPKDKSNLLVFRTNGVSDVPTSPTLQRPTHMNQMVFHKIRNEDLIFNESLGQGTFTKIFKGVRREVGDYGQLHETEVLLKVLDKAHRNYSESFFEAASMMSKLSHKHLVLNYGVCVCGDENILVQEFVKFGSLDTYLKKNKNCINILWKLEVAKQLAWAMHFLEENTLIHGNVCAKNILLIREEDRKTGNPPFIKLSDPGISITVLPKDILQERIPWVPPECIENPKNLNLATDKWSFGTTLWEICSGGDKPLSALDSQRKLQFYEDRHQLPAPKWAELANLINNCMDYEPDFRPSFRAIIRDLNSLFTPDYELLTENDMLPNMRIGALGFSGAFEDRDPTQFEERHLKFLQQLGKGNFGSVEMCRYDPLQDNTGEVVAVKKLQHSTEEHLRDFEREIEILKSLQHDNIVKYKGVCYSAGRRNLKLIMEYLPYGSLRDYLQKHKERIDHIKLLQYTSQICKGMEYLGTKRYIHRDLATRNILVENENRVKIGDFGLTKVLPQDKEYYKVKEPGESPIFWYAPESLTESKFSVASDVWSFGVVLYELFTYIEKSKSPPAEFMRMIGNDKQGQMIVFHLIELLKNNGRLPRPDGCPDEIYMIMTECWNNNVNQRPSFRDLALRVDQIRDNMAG
T1 sequence (P00533 25-1210): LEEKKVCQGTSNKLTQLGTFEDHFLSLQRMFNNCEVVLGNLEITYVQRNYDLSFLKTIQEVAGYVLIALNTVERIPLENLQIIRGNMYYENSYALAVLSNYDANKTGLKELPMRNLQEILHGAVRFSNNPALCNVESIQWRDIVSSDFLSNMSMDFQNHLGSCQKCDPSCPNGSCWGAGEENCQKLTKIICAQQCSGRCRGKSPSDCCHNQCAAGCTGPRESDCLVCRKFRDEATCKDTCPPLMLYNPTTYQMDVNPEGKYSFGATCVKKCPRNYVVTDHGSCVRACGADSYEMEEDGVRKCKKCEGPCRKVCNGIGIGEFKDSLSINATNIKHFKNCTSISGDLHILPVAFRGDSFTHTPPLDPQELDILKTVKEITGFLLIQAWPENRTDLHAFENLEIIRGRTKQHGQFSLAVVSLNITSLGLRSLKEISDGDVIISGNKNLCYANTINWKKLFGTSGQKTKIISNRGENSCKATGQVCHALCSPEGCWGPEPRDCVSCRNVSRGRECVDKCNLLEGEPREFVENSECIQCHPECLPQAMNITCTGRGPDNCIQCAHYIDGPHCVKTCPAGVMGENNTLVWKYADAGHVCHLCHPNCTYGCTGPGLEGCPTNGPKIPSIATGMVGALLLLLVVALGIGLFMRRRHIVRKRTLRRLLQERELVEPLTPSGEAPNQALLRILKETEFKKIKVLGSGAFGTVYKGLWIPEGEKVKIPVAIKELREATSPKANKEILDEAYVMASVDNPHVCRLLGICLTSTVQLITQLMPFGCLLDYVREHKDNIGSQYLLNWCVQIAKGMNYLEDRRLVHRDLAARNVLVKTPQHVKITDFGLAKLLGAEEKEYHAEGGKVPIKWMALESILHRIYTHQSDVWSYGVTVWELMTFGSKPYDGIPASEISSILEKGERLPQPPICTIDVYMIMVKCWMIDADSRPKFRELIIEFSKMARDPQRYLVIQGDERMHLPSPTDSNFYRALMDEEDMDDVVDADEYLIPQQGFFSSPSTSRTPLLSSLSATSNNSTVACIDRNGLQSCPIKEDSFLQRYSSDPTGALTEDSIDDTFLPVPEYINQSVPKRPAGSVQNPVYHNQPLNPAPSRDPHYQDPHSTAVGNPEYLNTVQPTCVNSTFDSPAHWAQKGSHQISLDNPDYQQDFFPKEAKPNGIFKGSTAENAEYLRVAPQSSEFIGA

As to `CCN1CCN(C(=O)c2ccc(Nc3ncc(F)c(-c4ccc5nc(N(C)C)sc5c4)n3)nc2)CC1` [YK-2-69], the “% Enzyme Activity (relative to DMSO controls)” value in experiment [1] is 109.51% and 108.13%; in [4], 98.55% and 92.68%; in experiment [5] it was 101.21% and 93.21%; in experiment [13], 97.65% and 97.50%; in [19], 79.77% and 77.94%. For the same molecule, the remaining activity at 1 µM worked out at 96.1% in [2]; 88.6% in experiment [3]; 94.5% in experiment [6]; 98.5% in [7]; 80.6% in [8]; 96.6% in experiment [9]. The remaining activity at 1 µM was 88.6% in [10]; 96% in [11]; 103% in experiment [12]; 85.3% in [14]; 74.5% in [15]; 104% in [16]. Also, the remaining activity at 1 µM is 100% in experiment [17]; 88.2% in [18]; 77.7% in experiment [20]; 85.9% in experiment [21]; 99.2% in experiment [22].
